Measurements published in patent US10864212B2, “Compositions and methods for treating retinal degradation” (University of Kentucky Research Foundation, priority 2013, dated 2020).
“Also recorded” adds a separate entry of the source.

Assays:
Assay type in all cases: cell-based
IL-1 beta = assay: LPS/ATP-induced IL-1 beta activation in primary mouse bone marrow-derived macrophages (Western blot); conditions: FIG. 39
From the text: To determine whether LPS/ATP-induced inflammasome activation can be inhibited without RT inhibition, the present inventors utilized thymidine kinase-deficient (Raji/TK^−) and -expressing (Raji/TK^+) cells (Balzarini et al., 1989). After addition of AZT, […], but not TK^− cells, the present inventors produced AZT-triphosphate (AZT-TP), the AZT metabolite required for RT inhibition (FIG. 40; FIG. 46, FIG. 47, FIG. 48, FIG. 49, FIG. 50).
FIGS. 38-41 illustrate that NRTIs block LPS/ATP-induced inflammasome activation. […] Representative images of n=3-4 experiments are provided in each of FIGS. 38-41.

Caspase-1 = assay: Western blot of Caspase-1 activation in primary human RPE cells transfected with Alu RNA
Experimental: The bottom row is a vinculin loading control. […]
FIG. 7 is a Western blot showing that Alu RNA causes Caspase-1 maturation in primary human RPE cells at 24 hours after Alu administration (top, middle lane, lower band), which is blocked with co-treatment with azidothymidine (AZT), cordycepin, and abacavir (ABC) (50-100 uM; lanes 3-8 from left). The loading control vinculin is shown on the bottom.
FIG. 21 is a Western blot of Caspase-1 activation (p20 subunit) in primary human RPE cells transfected with Alu RNA±me-d4T.
FIG. 35 is a Western blot of Caspase-1 activation in human RPE cells transfected with Alu RNA±NRTIs (3TC, AZT, ABC).
The bottom row in FIG. 5 is a vinculin loading control. […]
Next, FIG. 7 provides evidence of AZT, cordycepin, and abacavir inhibition of inflammasome activation by Alu RNA. Indeed, Alu RNA causes NLRP3 inflammasome activation, which is marked by processing of the enzyme Caspase 1. FIG. 7 is a Western blot showing that Alu RNA causes Caspase-1 maturation in primary human RPE cells at 24 hours after Alu administration (top, lane 2, lower band), which is blocked with co-treatment with azidothymidine (AZT), cordycepin, and abacavir (ABC) (50-100 uM; Lanes 3-8). Again, the loading control vinculin is shown on the bottom.

[1] = system: extracellular potassium levels; assay: Extracellular potassium levels after Alu RNA transfection of primary human RPE cells (pyruvate kinase assay); conditions: primary human RPE cells treated with Alu RNA for 6 hours; FIG. 18
Experimental: Potassium levels were determined in cell culture supernatants spectrophotometrically using a potassium-dependent pyruvate kinase assay.
For FIG. 18, potassium levels were determined in cell culture supernatants spectrophotometrically using a potassium-dependent pyruvate kinase assay.

Cc1cn([C@H]2C=C[C@@H](CO)O2)c(=O)[nH]c1=O [d4T, 2′3′ dideoxythymidine]
IL-1 beta activation / secretion of mature IL-1 beta, LPS/ATP (IL-1 beta): blocks secretion of mature IL-1 beta; also recorded: blocked IL-1 beta
Caspase-1 maturation caused by Alu RNA (Caspase-1; 24 hours after Alu administration, d4T 100 uM, FIG. 5): blocked
Caspase-1 activation / cleavage (p20) induced by Alu RNA (Caspase-1; concentration not given, FIG. 21, 34, 35, 51-53): block Caspase 1 activation by Alu RNA; also recorded: prevents Caspase 1 cleavage to its active 20 kDa form
Extracellular potassium levels after Alu RNA transfection [1]: reduces extracellular potassium levels
